Among the data in the OligoGym collection are target mRNA knockdown values, retold here.

HELM strings list units from the 5' end as sugar, base in round brackets, then linkage (d deoxyribose, r ribose, m 2'-O-methyl, p phosphodiester). Strings are as the collection lists them, not checked against the first reports. ss, as = sense and antisense strand; [lna] = locked nucleic acid (LNA)
Note: test system not given here.

The conditions of the data set: siRNA.
The substance “RNA1{r(C)p.r(U)p.r(U)p.r(A)p.r(C)p.r(G)p.r(C)p.r(U)p.r(G)p.r(A)p.r(G)p.r(U)p.r(A)p.r(C)p.r(U)p.r(U)p.r(C)p.r(G)p.r(A)p.r(T)p.r(T)}|RNA2{r(U)p.r(C)p.r(G)p.r(A)p.r(A)p.r(G)p.r(U)p.[lna](A)p.r(C)p.r(U)p.r(C)p.r(A)p.r(G)p.r(C)p.r(G)p.r(U)p.r(A)p.r(A)p.r(G)p.r(T)p.r(T)}$$$RNA1{StrandType:ss}|RNA2{StrandType:as}$” yielded a target mRNA knockdown of 86%.
To “RNA1{r(C)p.r(U)p.r(U)p.r(A)p.r(C)p.r(G)p.r(C)p.r(U)p.r(G)p.r(A)p.r(G)p.r(U)p.r(A)p.r(C)p.r(U)p.r(U)p.r(C)p.r(G)p.r(A)p.r(T)p.r(T)}|RNA2{r(U)p.r(C)p.r(G)p.r(A)p.r(A)p.r(G)p.r(U)p.r(A)p.[lna](C)p.r(U)p.r(C)p.r(A)p.r(G)p.r(C)p.r(G)p.r(U)p.r(A)p.r(A)p.r(G)p.r(T)p.r(T)}$$$RNA1{StrandType:ss}|RNA2{StrandType:as}$” belongs 85%; to “RNA1{r(C)p.r(U)p.r(U)p.r(A)p.r(C)p.r(G)p.r(C)p.r(U)p.r(G)p.r(A)p.r(G)p.r(U)p.r(A)p.r(C)p.r(U)p.r(U)p.r(C)p.r(G)p.r(A)p.r(T)p.r(T)}|RNA2{r(U)p.r(C)p.r(G)p.r(A)p.r(A)p.r(G)p.r(U)p.r(A)p.r(C)p.r(U)p.[lna](C)p.r(A)p.r(G)p.r(C)p.r(G)p.r(U)p.r(A)p.r(A)p.r(G)p.r(T)p.r(T)}$$$RNA1{StrandType:ss}|RNA2{StrandType:as}$”, 50%; to “RNA1{r(C)p.r(U)p.r(U)p.r(A)p.r(C)p.r(G)p.r(C)p.r(U)p.r(G)p.r(A)p.r(G)p.r(U)p.r(A)p.r(C)p.r(U)p.r(U)p.r(C)p.r(G)p.r(A)p.r(T)p.r(T)}|RNA2{r(U)p.r(C)p.r(G)p.r(A)p.r(A)p.r(G)p.r(U)p.r(A)p.r(C)p.r(U)p.r(C)p.[lna](A)p.r(G)p.r(C)p.r(G)p.r(U)p.r(A)p.r(A)p.r(G)p.r(T)p.r(T)}$$$RNA1{StrandType:ss}|RNA2{StrandType:as}$”, 89%.
To “RNA1{r(C)p.r(U)p.r(U)p.r(A)p.r(C)p.r(G)p.r(C)p.r(U)p.r(G)p.r(A)p.r(G)p.r(U)p.r(A)p.r(C)p.r(U)p.r(U)p.r(C)p.r(G)p.r(A)p.r(T)p.r(T)}|RNA2{r(U)p.r(C)p.r(G)p.r(A)p.r(A)p.r(G)p.r(U)p.r(A)p.r(C)p.r(U)p.r(C)p.r(A)p.[lna](G)p.r(C)p.r(G)p.r(U)p.r(A)p.r(A)p.r(G)p.r(T)p.r(T)}$$$RNA1{StrandType:ss}|RNA2{StrandType:as}$” belongs 65%.
Next, “RNA1{r(C)p.r(U)p.r(U)p.r(A)p.r(C)p.r(G)p.r(C)p.r(U)p.r(G)p.r(A)p.r(G)p.r(U)p.r(A)p.r(C)p.r(U)p.r(U)p.r(C)p.r(G)p.r(A)p.r(T)p.r(T)}|RNA2{r(U)p.r(C)p.r(G)p.r(A)p.r(A)p.r(G)p.r(U)p.r(A)p.r(C)p.r(U)p.r(C)p.r(A)p.r(G)p.[lna](C)p.r(G)p.r(U)p.r(A)p.r(A)p.r(G)p.r(T)p.r(T)}$$$RNA1{StrandType:ss}|RNA2{StrandType:as}$”: 43%; “RNA1{r(C)p.r(U)p.r(U)p.r(A)p.r(C)p.r(G)p.r(C)p.r(U)p.r(G)p.r(A)p.r(G)p.r(U)p.r(A)p.r(C)p.r(U)p.r(U)p.r(C)p.r(G)p.r(A)p.r(T)p.r(T)}|RNA2{r(U)p.r(C)p.r(G)p.r(A)p.r(A)p.r(G)p.r(U)p.r(A)p.r(C)p.r(U)p.r(C)p.r(A)p.r(G)p.r(C)p.[lna](G)p.r(U)p.r(A)p.r(A)p.r(G)p.r(T)p.r(T)}$$$RNA1{StrandType:ss}|RNA2{StrandType:as}$”: 85%; “RNA1{r(C)p.r(U)p.r(U)p.r(A)p.r(C)p.r(G)p.r(C)p.r(U)p.r(G)p.r(A)p.r(G)p.r(U)p.r(A)p.r(C)p.r(U)p.r(U)p.r(C)p.r(G)p.r(A)p.r(T)p.r(T)}|RNA2{r(U)p.r(C)p.r(G)p.r(A)p.r(A)p.r(G)p.r(U)p.r(A)p.r(C)p.r(U)p.r(C)p.r(A)p.r(G)p.r(C)p.r(G)p.[lna](U)p.r(A)p.r(A)p.r(G)p.r(T)p.r(T)}$$$RNA1{StrandType:ss}|RNA2{StrandType:as}$”: 81%.
